Experimental data published in publication PMC8541144, “Synthesis, Characterization and In Vitro Evaluation of Hybrid Monomeric Peptides Suited for Multimodal Imaging by PET/OI: Extending the Concept of Charge—Cell Binding Correlation” (Pharmaceuticals, 2021).
Read-outs that look alike come from different tables or passages of the source.

Key:
[1] = design: method as in PMID 32618007, PMID 32948032; settings: MIUs; mean ± SD; ref [20],[21]; cited from earlier work
[2] = design: method as in PMID 32618007, PMID 32948032; settings: ref [20],[21], cited from earlier work
[3] = LogD determination: partition between 1-octanol and phosphate buffer pH 7.4
Method: In the following, the lipophilicity of the labeled conjugates was investigated to get a first idea of the potential excretion pathway of the agents during an in vivo application. The logD values were determined by partition experiments between n-octanol and aqueous solution at pH 7.4.
The mixtures were intensively shaken for 5 min on a vibrating plate. After subsequent centrifugation at 13,000 rpm for 5 min, 125 µL were taken from each phase and measured in a γ-counter. The logD values were calculated from three or four independent experiments, each performed in triplicate.

Which logD [1] does the source give for `CC1(C)C(/C=C/C2=C(c3ccc(C(=O)NCCCC[C@H](NC(=O)CC[C@H](C(=O)O)N4CCN(CC(=O)O)CCN(CC(=O)O)CC4)C(=O)N[C@@H](CS)C(N)=O)cc3)C(=C/C=C3/N(CCCCS(=O)(=O)[O-])c4ccc5ccccc5c4C3(C)C)/CCC2)=[N+](CCCCS(=O)(=O)O)c2ccc3ccccc3c21` [Compound 9, thio-cyanine-NODA-GA] here?
Its logD is −1.29 ± 0.11.

And the “Stokes Shift” value ([2]; MIU, λex = 650 nm)?
Its value is 10 nm.

And the “λmax(em)” value ([2]; MIU, λex = 650 nm)?
The value was 800 nm.

What about the “λmax(abs)” value ([2]; MIUs) of the same compound?
The value was 720/790.

Which logD [3] does the source give for `CC1(C)C(/C=C/C2=C(c3ccc(C(=O)NCCCC[C@H](NC(=O)CC[C@H](C(=O)O)N4CCN(CC(=O)O)CCN(CC(=O)O)CC4)C(=O)N[C@@H](CSC4CC(=O)N(CCCC(=O)NCCOCCOCCOCCOCCC(=O)NCCCC[C@@H]5NC(=O)[C@@H](Cc6ccccc6)NC(=O)[C@H](CC(=O)O)NC(=O)CNC(=O)[C@H](CCCNC(=N)N)NC5=O)C4=O)C(N)=O)cc3)C(=C/C=C3/N(CCCCS(=O)(=O)[O-])c4ccc5ccccc5c4C3(C)C)/CCC2)=[N+](CCCCS(=O)(=O)O)c2ccc3ccccc3c21` (some centres unmarked) [9 c, c(RGDfK)-cyanine-NODA-GA] here?
Its logD is -1.97 ± 0.18.

For `CCCC[C@H](NC(=O)CCOCCOCCOCCOCCNC(=O)CCCN1C(=O)CC(SC[C@H](NC(=O)[C@H](CCCCNC(=O)c2ccc(C3=C(/C=C/C4=[N+](CCCCS(=O)(=O)O)c5ccc6ccccc6c5C4(C)C)CCC/C3=C\C=C3\N(CCCCS(=O)(=O)[O-])c4ccc5ccccc5c4C3(C)C)cc2)NC(=O)CC[C@H](C(=O)O)N2CCN(CC(=O)O)CCN(CC(=O)O)CC2)C(N)=O)C1=O)C(=O)N[C@H]1CC(=O)NCCCC[C@@H](C(N)=O)NC(=O)[C@H](Cc2c[nH]c3ccccc23)NC(=O)[C@H](CCCNC(=N)N)NC(=O)[C@@H](Cc2ccccc2)NC(=O)[C@H](Cc2c[nH]cn2)NC1=O` (some centres unmarked) [9 b, Nle-c(DHfRWK)-cyanine-NODA-GA], which logD [3] is on record?
The logD was -1.42 ± 0.13.

With `CSCC[C@H](NC(=O)[C@H](CC(C)C)NC(=O)[C@H](Cc1c[nH]cn1)NC(=O)CNC(=O)[C@@H](NC(=O)[C@H](C)NC(=O)[C@H](Cc1c[nH]c2ccccc12)NC(=O)[C@H](CCC(N)=O)NC(=O)CCOCCOCCOCCOCCNC(=O)CCCN1C(=O)CC(SC[C@H](NC(=O)[C@H](CCCCNS(=O)(=O)c2cccc3c(N(C)C)cccc23)NC(=O)CC[C@H](C(=O)O)N2CCN(CC(=O)O)CCN(CC(=O)O)CC2)C(N)=O)C1=O)C(C)C)C(N)=O` (some centres unmarked) [8 a, BBN7-14-dansyl-NODA-GA] as the compound, how does the logD [3] read?
Its logD is -1.44 ± 0.01.

Which logD [1] does the source give for `NC(=O)[C@H](CS)NC(=O)CNC(=O)CC[C@H](C(=O)O)N1CCN(CC(=O)O)CCN(CC(=O)O)CC1` [Compound 10, thio-NODA-GA] here?
The logD was −3.35 ± 0.15.

For `CN(C)c1cccc2c(S(=O)(=O)NCCCC[C@H](NC(=O)CC[C@H](C(=O)O)N3CCN(CC(=O)O)CCN(CC(=O)O)CC3)C(=O)N[C@@H](CSC3CC(=O)N(CCCC(=O)NCCOCCOCCOCCOCCC(=O)NCCCC[C@@H]4NC(=O)[C@@H](Cc5ccccc5)NC(=O)[C@H](CC(=O)O)NC(=O)CNC(=O)[C@H](CCCNC(=N)N)NC4=O)C3=O)C(N)=O)cccc12` (some centres unmarked) [8 c, c(RGDfK)-dansyl-NODA-GA], which logD [3] is on record?
The logD was -2.17 ± 0.14.

With `CCCC[C@H](NC(=O)CCOCCOCCOCCOCCNC(=O)CCCN1C(=O)CC(SC[C@H](NC(=O)[C@H](CCCCNS(=O)(=O)c2cccc3c(N(C)C)cccc23)NC(=O)CC[C@H](C(=O)O)N2CCN(CC(=O)O)CCN(CC(=O)O)CC2)C(N)=O)C1=O)C(=O)N[C@H]1CC(=O)NCCCC[C@@H](C(N)=O)NC(=O)[C@H](Cc2c[nH]c3ccccc23)NC(=O)[C@H](CCCNC(=N)N)NC(=O)[C@@H](Cc2ccccc2)NC(=O)[C@H](Cc2c[nH]cn2)NC1=O` (some centres unmarked) [8 b, Nle-c(DHfRWK)-dansyl-NODA-GA] as the compound, how does the logD [3] read?
The logD was -1.66 ± 0.03.

For `CSCC[C@H](NC(=O)[C@H](CC(C)C)NC(=O)[C@H](Cc1c[nH]cn1)NC(=O)CNC(=O)[C@@H](NC(=O)[C@H](C)NC(=O)[C@H](Cc1c[nH]c2ccccc12)NC(=O)[C@H](CCC(N)=O)NC(=O)CCOCCOCCOCCOCCNC(=O)CCCN1C(=O)CC(SC[C@H](NC(=O)[C@H](CCCC[n+]2c(C)cc(/C=C/c3ccc(N(C)C)cc3)cc2C)NC(=O)CC[C@H](C(=O)O)N2CCN(CC(=O)O)CCN(CC(=O)O)CC2)C(N)=O)C1=O)C(C)C)C(N)=O` (some centres unmarked) [7 a, BBN7-14-pyrylium-NODA-GA], which logD [3] is on record?
The logD was -2.38 ± 0.02.

Which results are given for `Cc1cc(/C=C/c2ccc(N(C)C)cc2)cc(C)[n+]1CCCC[C@H](NC(=O)CC[C@H](C(=O)O)N1CCN(CC(=O)O)CCN(CC(=O)O)CC1)C(=O)N[C@@H](CS)C(N)=O` [Compound 7]?
logD [1]: −2.04 ± 0.11; Stokes Shift ([2]; MIU, λex = 400 nm): 160 nm; log ε ([2]; MIUs): 4.16 M^−1cm^−1; λmax(abs) ([2]; MIUs): 440 nm; λmax(em) ([2]; MIUs, λex = 400 nm): 600 nm

With `CSCC[C@H](NC(=O)[C@H](CC(C)C)NC(=O)[C@H](Cc1c[nH]cn1)NC(=O)CNC(=O)[C@@H](NC(=O)[C@H](C)NC(=O)[C@H](Cc1c[nH]c2ccccc12)NC(=O)[C@H](CCC(N)=O)NC(=O)CCOCCOCCOCCOCCNC(=O)CCCN1C(=O)CC(SC[C@H](NC(=O)CNC(=O)CC[C@H](C(=O)O)N2CCN(CC(=O)O)CCN(CC(=O)O)CC2)C(N)=O)C1=O)C(C)C)C(N)=O` (some centres unmarked) [[^68Ga]Ga-10 a, metal not drawn] as the compound, how does the logD [3] read?
The logD was -3.78 ± 0.04.

For `N=C(N)NCCC[C@@H]1NC(=O)[C@H](CCCCNC(=O)CCOCCOCCOCCOCCNC(=O)CCCN2C(=O)CC(SC[C@H](NC(=O)CNC(=O)CC[C@H](C(=O)O)N3CCN(CC(=O)O)CCN(CC(=O)O)CC3)C(N)=O)C2=O)NC(=O)[C@@H](Cc2ccccc2)NC(=O)[C@H](CC(=O)O)NC(=O)CNC1=O` (some centres unmarked) [10 c, c(RGDfK)-NODA-GA], which logD [3] is on record?
The logD was -4.06 ± 0.1.

Which logD [3] does the source give for `CCCC[C@H](NC(=O)CCOCCOCCOCCOCCNC(=O)CCCN1C(=O)CC(SC[C@H](NC(=O)CNC(=O)CC[C@H](C(=O)O)N2CCN(CC(=O)O)CCN(CC(=O)O)CC2)C(N)=O)C1=O)C(=O)N[C@H]1CC(=O)NCCCC[C@@H](C(N)=O)NC(=O)[C@H](Cc2c[nH]c3ccccc23)NC(=O)[C@H](CCCNC(=N)N)NC(=O)[C@@H](Cc2ccccc2)NC(=O)[C@H](Cc2c[nH]cn2)NC1=O` (some centres unmarked) [[^68Ga]Ga-10 b, metal not drawn] here?
Its logD is -3.36 ± 0.02.

With `CN(C)c1cccc2c(S(=O)(=O)NCCCC[C@H](NC(=O)CC[C@H](C(=O)O)N3CCN(CC(=O)O)CCN(CC(=O)O)CC3)C(=O)N[C@@H](CS)C(N)=O)cccc12` [Compound 8, thio-dansyl-NODA-GA] as the compound, how does the logD [1] read?
The logD was −1.39 ± 0.04.

And the “λmax(em)” value ([2]; MIUs, λex = 400 nm)?
Its value is 550 nm.

Which logD [3] does the source give for `Cc1cc(/C=C/c2ccc(N(C)C)cc2)cc(C)[n+]1CCCC[C@H](NC(=O)CC[C@H](C(=O)O)N1CCN(CC(=O)O)CCN(CC(=O)O)CC1)C(=O)N[C@@H](CSC1CC(=O)N(CCCC(=O)NCCOCCOCCOCCOCCC(=O)NCCCC[C@@H]2NC(=O)[C@@H](Cc3ccccc3)NC(=O)[C@H](CC(=O)O)NC(=O)CNC(=O)[C@H](CCCNC(=N)N)NC2=O)C1=O)C(N)=O` (some centres unmarked) [7 c, c(RGDfK)-pyrylium-NODA-GA] here?
The logD was -2.51 ± 0.09.

For `CCCC[C@H](NC(=O)CCOCCOCCOCCOCCNC(=O)CCCN1C(=O)CC(SC[C@H](NC(=O)[C@H](CCCC[n+]2c(C)cc(/C=C/c3ccc(N(C)C)cc3)cc2C)NC(=O)CC[C@H](C(=O)O)N2CCN(CC(=O)O)CCN(CC(=O)O)CC2)C(N)=O)C1=O)C(=O)N[C@H]1CC(=O)NCCCC[C@@H](C(N)=O)NC(=O)[C@H](Cc2c[nH]c3ccccc23)NC(=O)[C@H](CCCNC(=N)N)NC(=O)[C@@H](Cc2ccccc2)NC(=O)[C@H](Cc2c[nH]cn2)NC1=O` (some centres unmarked) [7 b, Nle-c(DHfRWK)-pyrylium-NODA-GA], which logD [3] is on record?
The logD was -2.03 ± 0.06.
